Test [1] has as its system RBCs / cultured vascular endothelial cells. Nature of the test: RBC adhesion assay on cultured vascular endothelial cells. Type of test: cell-based, rat. The protocol: RBCs collected from each HIP rat group (normal, pre-diabetes, diabetes, ±high-fat diet) are infused into AKO rats (300 μL RBCs, daily, 7 days, q.d., via the tail vein). Because diabetes develops later (by 6 mo) in female vs. male HIP rats, AKO rats are matched for age and sex to HIP rats providing the RBCs for infusion. At the end of infusion period, rats are sacrificed, perfused with saline through a catheter implanted into the right external jugular vein to wash out the blood from blood vessels, followed by heart collection and paraffin embedding. Confocal microscopy is used to identify the attachment of amylin-loaded RBCs to vascular endothelium (as in FIG. 5A). Before analysis, heart sections are incubated with 1% Sudan black to block autofluorescence. Control sections with either omitted primary or secondary antibodies are used to establish specific staining. […] Adherence is calculated as percentage of optical density of adhered Hb (as in FIG. 5C).
In some embodiments, adult rat microvascular endothelial cells (RA-6024, Cell Biologics, IL) were cultured on 96-wells cell culture plate coated with cell attachment factor solution (123-100, Sigma, MO). […] The amount of hemoglobin in each well was measured from the optical density (OD) as described above. Adherence was calculated as the percentage of OD of adhered hemoglobin/(OD of total hemoglobin×dilution factor).

The next test has as its system cardiac myocytes. Nature of the test: Amylin incorporation in cardiac myocytes ex vivo (FIG. 15B). The test is classed as cell-based. The protocol:
Cardiac myocytes were isolated from rats in all rat groups. Isolated myocytes are used for testing myocyte accumulation of amylin (by ELISA and Western blot, as shown before^8,10), sarcolemmal structural integrity (dye leakage assay, electron microscopy, LC-MS/MS and fluorescent markers) and myocyte Ca^2+ cycling (see below). Each experiment is performed on hearts/myocytes from a number of rats/group. Calculation of the minimum sample size with a two-tail t-test considering α=0.05 and 1−β=0.8; performed with GPower 3.1.9.2.

The next test addresses T1, amylin (Homo sapiens, UniProt P10997).
T1 construct: is a 37-amino acid peptide synthesized and co-secreted with insulin
T1 sequence (P10997 34-70 limits assumed): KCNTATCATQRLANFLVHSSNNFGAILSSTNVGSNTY
Nature of the test: Amylin aggregation with 14,15-EET (FIG. 15A). Type of test: biochemical.

The next test concerns HIP rats. The settings on record: cited from earlier work.
For another test, the system named is diabetic UCD rats. In words: Intravenous aggregated human amylin in diabetic UCD rats. Type of test: in vivo, rat. The protocol:
To examine further a possible ‘amylin stress” on oxygen-sensing pathways, aggregated human amylin (hA) (0.08 μg/g body weight) was intravenously administered to diabetic UCD rats, daily, for one week. […] This acute “amylin stress” provoked an increase in plasma EPO level (FIG. 23E; the “after hA inj” rat group) and no difference in renal HIF-2α and HIF-1α levels in whole kidney tissue homogenate (FIG. 23F).

The next test deals with WT rat RBCs. Nature of the test: RBC shape by flow cytometry after incubation with human amylin. Type of test: cell-based. The protocol:
In all rat groups (±high-fat diet), the RBC shape distributions are analyzed by FACScan flow cytometry (Becton Dickinson LSRII) as a function of characteristic RBC amylin levels, as in FIG. 4D. The Pearson coefficient of dissymmetry (PCD) shown in FIG. 4D reflects the sphericity of RBCs (PCD=0 indicates RBC spherical shape).
In some embodiments, RBCs (1×10^7 cells) were aliquoted to assay tubes, washed twice with 2 mL incubation buffer (0.5% BSA in PBS), and resuspended in 100 μL incubation buffer. RBCs were incubated with an anti-amylin antibody (1:200, T-4157, Bachem-Peninsula Laboratories, CA) for 1 hour on ice, washed twice with PBS by centrifugation at 1000×g for 1 minute and then incubated with goat anti-rabbit Alexa Fluor® 488 (A11029, Invitrogen, MA) for 30 min on ice. RBCs were then washed twice before re-suspension in 200 μl PBS, and analyzed by flow cytometer (Becton Dickinson LSRII) within 90 min. To assess the cell shape, RBCs were first gated on a forward scatter (FSC)/side scatter (SSC) plot. The R1 events arevisualized using a FSC-A/FSC-H dot plot. For detecting amylin deposited on RBCs, the cells were first gated on a forward scatter (FSC)/side scatter (SSC) plot. RBCs were further gated to determine the amylin signal (Alexa 488), using negative control (no antibody) and positive control to set the upper and lower boundaries.
Background: Flow cytometry measures light scatter and fluorescence of single cells or particles in a stream.

The subject of a further test is AKO mice. The settings on record: cited from earlier work; for amylin deposits in the myocardium: i.v. q.d., 7 days.
Where [2] appears, read: kidney tissue homogenates, FIG. 23G.

Like-named read-outs stand apart in the source and are kept apart here. Where no end group is shown, it is not given here.

As for `CCCCCC1OC1C/C=C\C/C=C\C/C=C\CCCC(=O)O` (racemic) [14,15-EET, (±)14(15)-EET], the “adhesion of HIP rat RBCs to cultured endothelial cells” value in test [1] (ex vivo incubation, FIG. 22D) is on record as “reduced”. Further, the “amylin incorporation in cardiac myocytes” value in the test with cardiac myocytes is given as “reduced”. For the same compound, the amylin aggregation entry at amylin is reported as “reduced”.
In the case of `CC(=O)N1CCC(NC(=O)NC23CC4CC(CC(C4)C2)C3)CC1` [APAU], the “amylin incorporation into RBCs and cardiac myocytes” value with HIP rats (pre-diabetic HIP rats) is given as “lower”. Further, the heart function result in the test with HIP rats (pre-diabetic HIP rats, prior study) is “improved”. For the same compound, the “levels of aggregated amylin in blood and cardiac myocytes” value in the test on HIP rats (pre-diabetic male HIP rats, 10 weeks, prior study) was “lower levels”.
Regarding “human amylin: 37-amino acid amyloid-forming peptide (islet amyloid polypeptide; IAPP), used recombinant/synthetic, aggregated (KCNTATCATQRLANFLVHSSNNFGAILSSTNVGSNTY)”, in test [1] (WT rat RBCs incubated 50 μmol/L, 2 h, FIG. 5C), the “RBC adherence to cultured endothelial cells” value is on record as “increased”. For the same compound, the “amylin deposition on RBCs” value in the test with diabetic UCD rats (0.08 μg/g body weight i.v. daily, one week, FIG. 23D) is “amylin deposition on RBCs”. In the test on diabetic UCD rats (0.08 μg/g i.v. daily, one week, vs baseline, FIG. 23E), the “plasma EPO level” value is recorded as “increase”. Besides, in the test with diabetic UCD rats (setting [2]), the “Arginase 1 protein levels” value is “elevated” and the “arginase 2 protein expression” value was “no significant change”. In the test with diabetic UCD rats (whole kidney tissue homogenate, FIG. 23F), the “renal HIF-2α and HIF-1α levels” value is reported as “no difference”. The “structural change of RBCs (rounded shape)” value with WT rat RBCs (50 μmol/L, 2 h) is listed as “replicated”. Besides, the “morphological change of RBCs (PCD)” value in the test with WT rat RBCs (4 hours, FIG. 27) was “replicated”. The “Sarcolemmal Ca2+ leak and Ca2+ transients” value in the test on AKO mice (females) is on record as “no significant changes”. The “amylin deposits in the myocardium” value in the test on AKO mice is recorded as “showed amylin deposits in the myocardium”. Also, the “Sarcolemmal Ca2+ leak and Ca2+ transients” value in the test on AKO mice (myocytes from male AKO mice) is “increased”.
Regarding “rodent amylin: non-amyloidogenic (i.e., monomeric) rodent amylin (KCNTATCATQRLANFLVRSSNNLGPVLPPTNVGSNTY; ends and bridges not checked; cysteine pairing not given here; UniProt P12969 38-74, looked up)”, in the test with AKO mice, the “amylin deposits in the myocardium” value is listed as “not”. Also, the “Sarcolemmal Ca2+ leak and Ca2+ transients” value in the test with AKO mice (rat amylin-infused mice) is reported as “no significant changes”.
